The source of these data is publication PMC12197660 (Viruses, 2025).

For data set [1] the following is noted: cited from earlier work.
The nature of data set [2]: Hepatic S9 fraction stability. The data set is classed as in vitro ADME, rat, dog, monkey, and human. The note with it: for S9 Stability, Hepatic: assessed in rat, dog, monkey, and human.
The subject of data set [3] is OATP1B1/3, P-gp, BCRP, ENT1/2, CNT3. Put plainly: Transporter substrate assessment. The data set is classed as in vitro ADME, human.
Data set [4] in a line: Plasma stability (Table 1, across species). The data set is classed as in vitro ADME, mouse, rat, dog, monkey, and human.
The subject of data set [5] is hydrolases (CatA, CES-1/2, HINT1). Put plainly: Enzyme hydrolysis phenotype. The data set is classed as in vitro ADME.
Data set [6] is described as follows: Intestinal (GI) S9 fraction stability. The data set is classed as in vitro ADME, rat, dog, monkey, and human. The note with it: for S9 Stability, Intestinal: assessed in rat, dog, monkey, and human.
Data set [7] can be described thus: QWBA tissue distribution of radioactivity. The data set is classed as in vivo. The note with it: oral [14C]ODV 200 mg/kg, rats.
The conditions of data set [8]: mean ± SD, N = 3, cited from earlier work.
A further data set can be described thus: LogD. The data set is classed as physicochemical.
The next data set can be described thus: Solubility (PBS). The data set is classed as physicochemical. The following applies: aqueous buffer; PBS; read-out: Solubility (PBS).
A short description of data set [9]: Radiolabeled metabolism and excretion in rats. The following applies: for Share of radioactivity in AUC-pooled plasma: analyte after IV RDV. The data set is classed as in vivo.
The conditions of data set [10]: humans, cited from earlier work.
Data set [11] in a line: Permeability (MDCK A-to-B). The following applies: dog, MDCK-MDR1, pH 7.4; A-to-B; read-out: Permeability (MDCK A-to-B). The data set is classed as in vitro ADME, canine.
A short description of data set [12]: Oral ODV PK in portal-vein-cannulated monkey. The data set is classed as in vivo, cynomolgus monkey. The following applies: for Time of plasma Cmax in both portal and systemic circulation: analyte after oral ODV 14.4 mg/kg, single monkey.
Another data set concerns plasma protein. Put plainly: Plasma protein binding. The data set is classed as in vitro ADME, mouse, rat, dog, monkey, and human. The following applies: range over mouse, rat, dog, monkey, and human.
The next data set concerns adenosine deaminase. The following applies: cited from earlier work.
The nature of data set [13]: Plasma and PBMC PK after IV RDV 10 mg/kg (Table 2). The following applies: N = 3; for half-life: cynomolgus monkey, in vivo, iv, 10 mg/kg. The data set is classed as in vivo, cynomolgus monkeys.
The conditions of data set [14]: human; cited from earlier work.
Data set [15] in a line: GS-441524 plasma PK across species. The following applies: for half-life: BALB/c (mouse), Sprague Dawley (rat), beagle (dog).
A short description of data set [16]: Microautoradiography (MARG) of lung and trachea. On Radioactivity in Alveoli sac: key: +++: moderate levels of silver grains present; ++: low levels of silver grains present; +: background levels of silver grains present. On Radioactivity in Blood vessels: key: +++: moderate levels of silver grains present; ++: low levels of silver grains present; +: background levels of silver grains present. On Radioactivity in Bronchioles: key: +++: moderate levels of silver grains present; ++: low levels of silver grains present; +: background levels of silver grains present. On Radioactivity in Bronchus (cartilage): key: +++: moderate levels of silver grains present; ++: low levels of silver grains present; +: background levels of silver grains present. The data set is classed as in vivo, Sprague Dawley rats. Further details: Radioactivity in Blood vessels / Radioactivity in Trachea (representative) / Radioactivity in Bronchus (cartilage) / Radioactivity in Bronchus (smooth muscle) / Radioactivity in Bronchus (epithelium) / Radioactivity in Bronchioles / Radioactivity in Alveoli wall: key: +++: moderate levels of silver grains present; ++: low levels of silver grains present; +: background levels of silver grains present. The note with it: [3H] compound, 30 min IV infusion 10 mg/kg (3700 µCi/kg), 1 h after infusion; per animal.

For data set [17] the following is noted: cynomolgus monkey; cited from earlier work.
Data set [18] can be described thus: Plasma stability, human plasma. The note with it: human plasma, 2 µM, 240 min incubation. The data set is classed as in vitro ADME.
A short description of data set [19]: Plasma stability, cynomolgus monkey plasma. The note with it: cynomolgus monkey plasma, 2 µM, 240 min incubation. The data set is classed as in vitro ADME.
[20] abbreviates: assessed in mouse, rat, dog, monkey, and human.
Setting [21] is: ODV oral 11.6 mg/kg (9.4 mg-eq/kg).
[22] abbreviates: analyte in plasma after IV RDV 10 mg/kg 30-min infusion, mean ± SD, read-out: T1/2 in plasma (converted).
Where [23] appears, read: GS-441524 IV 30 min infusion 20 mg/kg.

The structures appear in SMILES notation. ≈ marks a conversion by molar mass, not a printed value. Where “and” joins values, the source holds several entries; their conditions need not be identical. Equal values may be shown once. Read-outs that look alike come from different tables or passages of the source.

In the case of `CC(C)C(=O)OC[C@H]1O[C@@](C#N)(c2ccc3c(N)ncnn23)[C@H](O)[C@@H]1O` [ODV, obeldesivir], the “Oral bioavailability of GS-441524, estimated” value in data set [1] (clinical ODV 350 mg oral tablet) is given as 41% to 50. For the same compound, the “Stability in Hep S9 fractions” value in [2] (Hep S9 from cynomolgus monkeys and humans, 2 µM) was “poor”. Besides, in [2], the “S9 Stability, Hepatic” value is listed as “Unstable”. Moreover, in [3], the Transporter substrate entry is listed as “BCRP/P-gp”; the “Transporter substrate (text)” value is “substrate for both BCRP and P-gp transporters”. In data set [4] (setting [20]), the Plasma stability entry is recorded as “Unstable (stable in dog)”. In addition, the Enzyme hydrolysis phenotype entry in [5] was “CES-1/2”. The “Stability in GI S9 fractions” value in [6] (PMSF-free GI S9 from cynomolgus monkeys and humans, 2 µM) was “poor”. In addition, the “S9 Stability, Intestinal” value in data set [6] is listed as “Unstable”. In addition, in data set [7], the “Persistence of radioactivity in tissues” value is “little [^14C]ODV-related radioactivity was detected after 24 h” and the “Time by which broad distribution of drug-associated radioactivity was observed” value is at most 0.25 h. In addition, in data set [8] (setting [21]), the “Plasma GS-441524 AUC0–24h” value is on record as 21,600 ± 11,000 nM·h, the “Plasma GS-441524 T1/2” value is 2.62 ± 0.55 h and the “Plasma GS-441524 Tmax” value was 1.67 ± 0.58 h. Also, the Cmax (as a rule, the maximum level reached in the sampled fluid or tissue) in data set [8] (read-out: Plasma GS-441524 Cmax, ODV oral 11.6 mg/kg (9.4 mg-eq/kg)) is 7.57 ± 6.07 µM. The logD (as a rule, the decadic logarithm of the distribution of all forms, ionised or not, between an organic phase and buffer at a given pH) in the data set “LogD” is on record as 0.9. The solubility – broadly, the concentration that dissolves in the medium under given conditions – in the data set “Solubility (PBS)” was around 1000 µg/mL (≈ 2770 µM). Besides, in data set [9] (oral ODV, rats), the “Fecal excretion, of administered dose, mean” value is 52%; the “Total mean [14C] dose recovery” value was “greater than 90%”; the “Urinary excretion, mean” value was determined as 33%. In data set [10] (oral ODV), the “Fecal excretion, of administered dose, mean” value was 32%; the “Total mean [14C] dose recovery” value is “greater than 90%”; the “Urinary excretion, mean” value is listed as 58%. Further, the Papp A→B at 120 min in [11] came to 1.8 ×10⁻⁶ cm/s. Also, the “Time of plasma Cmax in both portal and systemic circulation” value in data set [12] worked out at 0.25 h. Besides, in [12] (portal vs systemic plasma ODV exposures, oral ODV 14.4 mg/kg), the “Hepatic extraction of intact ODV absorbed” value is on record as “near complete hepatic extraction”. For the same compound, in the data set on plasma protein, the “Plasma protein binding (% free)” value is listed as 56–76 % free.
On to `N#C[C@@]1(c2ccc3c(N)ncnn23)O[C@H](CO)[C@@H](O)[C@H]1O` [GS-441524], for which the “Oral bioavailability of GS-441524, estimated” value in data set [1] (oral solution (55 °C) of GS-441524, human PK) is given as below 15%. Moreover, the “S9 Stability, Hepatic” value in [2] was “Stable”. Besides, in data set [3], the “Transporter substrate (text)” value was “substrate for P-gp”. In addition, in data set [3] (human), the Transporter substrate result was “BCRP/P-gp ENT1/2/CNT3”. Besides, the Plasma stability result in [4] (setting [20]) is recorded as “Stable”. In the data set on adenosine deaminase, the Adenosine deaminase substrate entry was “weak substrate for adenosine deaminase”. The “S9 Stability, Intestinal” value in data set [6] is reported as “Stable”. Also, in data set [13] (setting [22]), the half-life is 16.1 ± 4 h. In addition, in [8] (setting [23]), the “Plasma GS-441524 AUC0–24h” value was 124,000 ± 11,000 nM·h and the “Plasma GS-441524 Tmax” value is on record as 0.516 ± 0.058 h. Besides, the Stability in plasma result in data set [14] is “stable”. This compound also showed a logD in the data set “LogD” below 0.3. In addition, the solubility in the data set “Solubility (PBS)” came out at 26.5 µg/mL (≈ 91 µM). In addition, the “Share of radioactivity in AUC-pooled plasma” value in data set [9] (rats) is recorded as “approximately 70%”. Further, in [9] (analyte after oral ODV, rats), the “Share of total radioactivity in plasma” value is above 97% and the “Share of total sample radioactivity in feces” value is ~ 85%. This compound had a half-life in data set [15] (plasma, iv) of 0.7 to 3.4 h. Moreover, the half-life in data set [15] (plasma, po) lay in the range of 1.4 to 4.2 h. Further, in [15] (IV, across species), the Volume of distribution result was “moderate volume of distribution” and the clearance result is on record as “low to moderate clearance”. Further, the bioavailability – broadly, the share of a dose that reaches the circulation, judged against a reference dose that is usually intravenous – in data set [15] (cynomolgus monkey, plasma, po) was around 5%. Moreover, in data set [16], the “Radioactivity in Alveoli sac” value was “++ (2×) and +”; the “Radioactivity in Alveoli wall” value is given as “+++”; the “Radioactivity in Blood vessels” value is listed as “+++”; the “Radioactivity in Bronchioles” value was “+++”. In addition, in data set [16], the “Radioactivity in Bronchus (cartilage)” value was “++ and +++”; the “Radioactivity in Bronchus (epithelium)” value is “++ and +++”; the “Radioactivity in Bronchus (smooth muscle)” value is given as “++”; the “Radioactivity in Trachea (representative)” value is given as “++”. Further, the “Share of total radioactivity in plasma” value in data set [10] (analyte after IV RDV) was ~ 53%. Besides, in [10] (analyte after oral ODV), the “Share of total radioactivity in plasma” value is reported as above 97% and the “Share of total sample radioactivity in feces” value is reported as 98%. Moreover, the Papp A→B at 120 min in [11] amounted to 0.16 ×10⁻⁶ cm/s. In addition, the “Time of plasma Cmax in both portal and systemic circulation” value in [12] is 1 h. In the data set with plasma protein, the “Plasma protein binding (% free)” value is 85–99 % free. Also, the Stability in plasma entry in [17] is recorded as “stable”.
`N#CC1(c2ccc3c(=O)[nH]cnn23)OC(CO)C(O)C1O` (centres unmarked) [Deaminated nucleoside]: the “Level in feces, fold lower than GS-441524” value in data set [9] (minor metabolite after oral ODV, rats and humans) is given as 5- to 10 fold.
Turning to `N#C[C@@]1(c2ccc3c(N)ncnn23)O[C@H](COP(=O)(O)OP(=O)(O)OP(=O)(O)O)[C@@H](O)[C@H]1O` [GS-443902], in data set [13] (analyte in PBMC after IV RDV 10 mg/kg 30-min infusion), the “T1/2 in PBMC” value was 29.4 ± 3.0 h. Moreover, the half-life in [13] (analyte in PBMC after IV RDV 10 mg/kg 30-min infusion, read-out: T1/2 in PBMC (converted)) is 29 h.
As for `C[C@H](NP(=O)(O)OC[C@H]1O[C@@](C#N)(c2ccc3c(N)ncnn23)[C@H](O)[C@@H]1O)C(=O)O` [GS-704277], the Transporter substrate entry in data set [3] (human) is recorded as “OATP1B1/3”. Further, the Plasma stability entry in data set [4] (assessed in monkey and human) was “Stable ^d”. For the same compound, the Enzyme hydrolysis phenotype result in data set [5] was “HINT1”. Further, in data set [13] (setting [22]), the half-life is 0.56 ± 0.01 h. Further, the Stability in plasma entry in data set [18] and in [19] was “stable” throughout. In addition, in data set [9] (rats), the “Share of radioactivity in AUC-pooled plasma” value is on record as around 20%. For the same compound, the “Plasma protein binding (% free)” value in the data set with plasma protein is recorded as 95–100 % free.
